The source of these data is patent publication US20090197944A1, “AGENT FOR IMPROVING MUSCLE FORCE” (KAO CORPORATION, priority 2006, published 2009).

This assay relates to isolated soleus muscle. Briefly: Electrical stimulation of isolated muscle (fatigue resistance). It counts as ex vivo tissue, mice. To be noted: 50 μM in Krebs solution, 37° C., equilibrated three minutes, stimulation 330 ms/2-sec, 40 Hz; vs control solution. How it is done:
Mice were bred in a similar manner to that for the control group of Test Example 1. Thereafter, soleus muscle was removed from each mouse. The isolated soleus muscle was fixed to a transducer (FORT100, product of WPI) in 37° C. Krebs solution (aeration: 95%-oxygen, 5%-carbon dioxide). The effect of catechins on the isolated muscle was analyzed. Specifically, each of eight catechin species (catechin, epicatechin, gallocatechin, epigallocatechin, catechin gallate, epicatechin gallate, gallocatechin gallate, and epigallocatechin gallate) was dissolved in a Krebs solution to a concentration of 50 μM. Each muscle piece was equilibrated in each solution for three minutes, and electrically stimulated (330 ms/2-sec). The frequency of stimulation was 40 Hz. […] A Krebs solution to which no catechin species had been added was employed as a control solution.
As to `O=C(O[C@@H]1Cc2c(O)cc(O)cc2O[C@@H]1c1ccc(O)c(O)c1)c1cc(O)c(O)c(O)c1` [epicatechin gallate], the “muscle force after 1 minute stimulation as fatigue index (ratio to muscle force at the start of electrical stimulation defined as 1)” value was “improved muscle fatigue resistance”.

As for `O=C(O[C@@H]1Cc2c(O)cc(O)cc2O[C@@H]1c1cc(O)c(O)c(O)c1)c1cc(O)c(O)c(O)c1` [epigallocatechin gallate], the “muscle force after 1 minute stimulation as fatigue index (ratio to muscle force at the start of electrical stimulation defined as 1)” value is given as “improved muscle fatigue resistance”.

For the compound `O=C(O[C@@H]1Cc2c(O)cc(O)cc2O[C@H]1c1cc(O)c(O)c(O)c1)c1cc(O)c(O)c(O)c1` [gallocatechin gallate], the “muscle force after 1 minute stimulation as fatigue index (ratio to muscle force at the start of electrical stimulation defined as 1)” value is “improved muscle fatigue resistance”.
